{"source": "ChEMBL document CHEMBL3832052", "assay": "clinical", "conditions": "human, in vivo, po", "data": [{"smiles": "Cc1cc(NS(=O)(=O)c2ccc(N)cc2)no1", "note": "[SULFAMETHOXAZOLE]", "values": [{"measurement": "Tmax", "value": "1 to 4", "unit": "h"}]}]}
